Data reported in ChEMBL document CHEMBL3885881, “DrugMatrix”.

Species on record: Rattus norvegicus
Test: DrugMatrix - Regimen: Daily Repeat
Format: toxicity, organism-based, Sprague-Dawley
Set-up: regimen Daily Repeat, gender Male, age 6-8 weeks
Settings: in vivo, po, route oral GAVAGE, vehicle 100 % WATER; for ABSOLUTE BASOPHIL / ABSOLUTE EOSINOPHIL / ABSOLUTE LYMPHOCYTE / ABSOLUTE MONOCYTE / ABSOLUTE SEGMENTED NEUTROPHIL / BASOPHIL / EOSINOPHIL / ERYTHROCYTE COUNT / HEMATOCRIT / HEMOGLOBIN / LEUKOCYTE COUNT / LYMPHOCYTE / MEAN CORPUSCULAR HEMOGLOBIN / MEAN CORPUSCULAR HEMOGLOBIN CONCENTRATION / MEAN CORPUSCULAR VOLUME / MONOCYTE / NEUTROPHIL / NUCLEATED RED BLOOD CELLS / PLATELET COUNT: tissue Blood; for ALANINE AMINOTRANSFERASE / ALBUMIN / ALKALINE PHOSPHATASE / ASPARTATE AMINOTRANSFERASE / BLOOD UREA NITROGEN / CARBON DIOXIDE / CHLORIDE / CHOLESTEROL / CREATINE PHOSPHOKINASE / CREATININE / GLUCOSE / LACTATE DEHYDROGENASE / LIPASE / PHOSPHORUS / POTASSIUM / SODIUM / TOTAL BILIRUBIN / TOTAL PROTEIN / URIC ACID: tissue Plasma
[1] = 120 mg/kg, 120 h, dose level Low, time 5 day
[2] = 1200 mg/kg, 72 h, dose level High, time 3 day
[3] = 1200 mg/kg, 120 h, dose level High, time 5 day

CCN(CC)CCNC(=O)c1cc(S(C)(=O)=O)ccc1OC [TIAPRIDE]
ABSOLUTE BASOPHIL [1]: 0 CELLS/uL | ABSOLUTE EOSINOPHIL [1]: 28 CELLS/uL | ABSOLUTE LYMPHOCYTE [1]: 7405.67 CELLS/uL | ABSOLUTE MONOCYTE [1]: 0 CELLS/uL | ABSOLUTE SEGMENTED NEUTROPHIL [1]: 299.67 CELLS/uL | BASOPHIL [1]: 0% | EOSINOPHIL [1]: 0.33% | ERYTHROCYTE COUNT [1]: 5.54 x10E6/uL | HEMATOCRIT [1]: 34.8% | HEMOGLOBIN [1]: 13.1 G/DL | LEUKOCYTE COUNT [1]: 7.73 x10E3/uL | LYMPHOCYTE [1]: 95.67% | MEAN CORPUSCULAR HEMOGLOBIN [1]: 23.67 pg | MEAN CORPUSCULAR HEMOGLOBIN CONCENTRATION [1]: 37.7 G/DL | MEAN CORPUSCULAR VOLUME [1]: 62.73 fL | MONOCYTE [1]: 0% | NEUTROPHIL [1]: 4% | NUCLEATED RED BLOOD CELLS [1]: 0 /100WBC | PLATELET COUNT [1]: 1102.33 x10E3/uL | ALANINE AMINOTRANSFERASE [1]: 42 u/L | ALBUMIN [1]: 4.3 G/DL | ALKALINE PHOSPHATASE [1]: 382 u/L | ASPARTATE AMINOTRANSFERASE [1]: 80.33 u/L | BLOOD UREA NITROGEN [1]: 15.33 mg/dL | CARBON DIOXIDE [1]: 27.67 mmol/L | CHLORIDE [1]: 103 MEQ/L | CHOLESTEROL [1]: 70.67 mg/dL | CREATINE PHOSPHOKINASE [1]: 223.33 u/L | CREATININE [1]: 0.19 mg/dL | GLUCOSE [1]: 142.33 mg/dL | LACTATE DEHYDROGENASE [1]: 132.33 u/L | LIPASE [1]: 8.33 u/L | PHOSPHORUS [1]: 11.83 mg/dL | POTASSIUM [1]: 6.07 MEQ/L | SODIUM [1]: 149.23 MEQ/L | TOTAL BILIRUBIN [1]: 0.27 mg/dL | TOTAL PROTEIN [1]: 6.03 G/DL | URIC ACID [1]: 0.97 mg/dL | ABSOLUTE BASOPHIL [2]: 0 CELLS/uL | ABSOLUTE EOSINOPHIL [2]: 187.33 CELLS/uL | ABSOLUTE LYMPHOCYTE [2]: 11272.67 CELLS/uL | ABSOLUTE MONOCYTE [2]: 0 CELLS/uL | ABSOLUTE SEGMENTED NEUTROPHIL [2]: 806.67 CELLS/uL | BASOPHIL [2]: 0% | EOSINOPHIL [2]: 1.33% | ERYTHROCYTE COUNT [2]: 6.23 x10E6/uL | HEMATOCRIT [2]: 38.93% | HEMOGLOBIN [2]: 14.8 G/DL | LEUKOCYTE COUNT [2]: 12.27 x10E3/uL | LYMPHOCYTE [2]: 92.33% | MEAN CORPUSCULAR HEMOGLOBIN [2]: 23.73 pg | MEAN CORPUSCULAR HEMOGLOBIN CONCENTRATION [2]: 38.03 G/DL | MEAN CORPUSCULAR VOLUME [2]: 62.5 fL | MONOCYTE [2]: 0% | NEUTROPHIL [2]: 6.33% | NUCLEATED RED BLOOD CELLS [2]: 0 /100WBC | PLATELET COUNT [2]: 1394 x10E3/uL | ALANINE AMINOTRANSFERASE [2]: 38 u/L | ALBUMIN [2]: 4.53 G/DL | ALKALINE PHOSPHATASE [2]: 408 u/L | ASPARTATE AMINOTRANSFERASE [2]: 80 u/L | BLOOD UREA NITROGEN [2]: 22.33 mg/dL | CARBON DIOXIDE [2]: 23.33 mmol/L | CHLORIDE [2]: 107 MEQ/L | CHOLESTEROL [2]: 76.33 mg/dL | CREATINE PHOSPHOKINASE [2]: 431 u/L | CREATININE [2]: 0.22 mg/dL | GLUCOSE [2]: 189.67 mg/dL | LACTATE DEHYDROGENASE [2]: 523.33 u/L | LIPASE [2]: 8.33 u/L | PHOSPHORUS [2]: 14.8 mg/dL | POTASSIUM [2]: 6.75 MEQ/L | SODIUM [2]: 147.23 MEQ/L | TOTAL BILIRUBIN [2]: 0.27 mg/dL | TOTAL PROTEIN [2]: 6.37 G/DL | URIC ACID [2]: 1.9 mg/dL | ABSOLUTE BASOPHIL [3]: 0 CELLS/uL | ABSOLUTE EOSINOPHIL [3]: 212 CELLS/uL | ABSOLUTE LYMPHOCYTE [3]: 15513 CELLS/uL | ABSOLUTE MONOCYTE [3]: 0 CELLS/uL | ABSOLUTE SEGMENTED NEUTROPHIL [3]: 1775 CELLS/uL | BASOPHIL [3]: 0% | EOSINOPHIL [3]: 1% | ERYTHROCYTE COUNT [3]: 5.86 x10E6/uL | HEMATOCRIT [3]: 36.5% | HEMOGLOBIN [3]: 13.9 G/DL | LEUKOCYTE COUNT [3]: 17.5 x10E3/uL | LYMPHOCYTE [3]: 89.33% | MEAN CORPUSCULAR HEMOGLOBIN [3]: 23.73 pg | MEAN CORPUSCULAR HEMOGLOBIN CONCENTRATION [3]: 38.1 G/DL | MEAN CORPUSCULAR VOLUME [3]: 62.33 fL | MONOCYTE [3]: 0% | NEUTROPHIL [3]: 9.67% | NUCLEATED RED BLOOD CELLS [3]: 0 /100WBC | PLATELET COUNT [3]: 1226 x10E3/uL | ALANINE AMINOTRANSFERASE [3]: 48.67 u/L | ALBUMIN [3]: 4.17 G/DL | ALKALINE PHOSPHATASE [3]: 452.67 u/L | ASPARTATE AMINOTRANSFERASE [3]: 83.67 u/L | BLOOD UREA NITROGEN [3]: 17.33 mg/dL | CARBON DIOXIDE [3]: 26.33 mmol/L | CHLORIDE [3]: 102.67 MEQ/L | CHOLESTEROL [3]: 66 mg/dL | CREATINE PHOSPHOKINASE [3]: 508.33 u/L | CREATININE [3]: 0.27 mg/dL | GLUCOSE [3]: 161.67 mg/dL | LACTATE DEHYDROGENASE [3]: 191.33 u/L | LIPASE [3]: 8 u/L | PHOSPHORUS [3]: 14.53 mg/dL | POTASSIUM [3]: 6.21 MEQ/L | SODIUM [3]: 146.03 MEQ/L | TOTAL BILIRUBIN [3]: 0.27 mg/dL | TOTAL PROTEIN [3]: 6.03 G/DL | URIC ACID [3]: 1.73 mg/dL
